Measured values reported in ChEMBL document CHEMBL3627628, “New macrocyclic analogs of the natural histone deacetylase inhibitor FK228; design, synthesis and preliminary biological evaluation” (Bioorg Med Chem, 2015).
The source made the active and inactive calls. No cut-off for these calls is given here.

Key:
[1] = system: IGROV-1; assay: cells; details: Homo sapiens, IGROV-1, 72 h
[2] = cells; details: Homo sapiens, IGROV-1, 72 h
[3] = target: Histone deacetylase 1 (Homo sapiens, UniProt Q13547); assay: Inhibition of HDAC1 (unknown origin) incubated for 1 hr by fluor de lys substrate based fluorescence method
Sequence of Histone deacetylase 1 (Q13547 whole entry): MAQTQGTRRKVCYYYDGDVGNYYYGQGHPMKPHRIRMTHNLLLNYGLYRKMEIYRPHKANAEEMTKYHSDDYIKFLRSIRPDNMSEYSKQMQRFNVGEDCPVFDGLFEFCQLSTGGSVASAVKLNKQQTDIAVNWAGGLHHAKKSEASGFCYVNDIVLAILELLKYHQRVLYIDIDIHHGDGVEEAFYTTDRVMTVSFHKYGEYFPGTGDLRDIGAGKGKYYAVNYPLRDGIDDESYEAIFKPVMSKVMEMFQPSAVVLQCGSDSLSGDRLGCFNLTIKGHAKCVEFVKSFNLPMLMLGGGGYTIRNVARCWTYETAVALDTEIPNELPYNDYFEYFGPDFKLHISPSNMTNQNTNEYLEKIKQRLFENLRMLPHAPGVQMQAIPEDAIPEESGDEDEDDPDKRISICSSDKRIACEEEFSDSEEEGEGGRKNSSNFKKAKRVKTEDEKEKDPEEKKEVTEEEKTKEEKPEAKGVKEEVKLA

[4] = target: T1, Protein deacetylase HDAC6 (Homo sapiens, UniProt Q9UBN7); assay: Inhibition of HDAC6 (unknown origin) incubated for 1 hr by fluor de lys substrate based fluorescence method
T1 sequence (Q9UBN7 whole entry): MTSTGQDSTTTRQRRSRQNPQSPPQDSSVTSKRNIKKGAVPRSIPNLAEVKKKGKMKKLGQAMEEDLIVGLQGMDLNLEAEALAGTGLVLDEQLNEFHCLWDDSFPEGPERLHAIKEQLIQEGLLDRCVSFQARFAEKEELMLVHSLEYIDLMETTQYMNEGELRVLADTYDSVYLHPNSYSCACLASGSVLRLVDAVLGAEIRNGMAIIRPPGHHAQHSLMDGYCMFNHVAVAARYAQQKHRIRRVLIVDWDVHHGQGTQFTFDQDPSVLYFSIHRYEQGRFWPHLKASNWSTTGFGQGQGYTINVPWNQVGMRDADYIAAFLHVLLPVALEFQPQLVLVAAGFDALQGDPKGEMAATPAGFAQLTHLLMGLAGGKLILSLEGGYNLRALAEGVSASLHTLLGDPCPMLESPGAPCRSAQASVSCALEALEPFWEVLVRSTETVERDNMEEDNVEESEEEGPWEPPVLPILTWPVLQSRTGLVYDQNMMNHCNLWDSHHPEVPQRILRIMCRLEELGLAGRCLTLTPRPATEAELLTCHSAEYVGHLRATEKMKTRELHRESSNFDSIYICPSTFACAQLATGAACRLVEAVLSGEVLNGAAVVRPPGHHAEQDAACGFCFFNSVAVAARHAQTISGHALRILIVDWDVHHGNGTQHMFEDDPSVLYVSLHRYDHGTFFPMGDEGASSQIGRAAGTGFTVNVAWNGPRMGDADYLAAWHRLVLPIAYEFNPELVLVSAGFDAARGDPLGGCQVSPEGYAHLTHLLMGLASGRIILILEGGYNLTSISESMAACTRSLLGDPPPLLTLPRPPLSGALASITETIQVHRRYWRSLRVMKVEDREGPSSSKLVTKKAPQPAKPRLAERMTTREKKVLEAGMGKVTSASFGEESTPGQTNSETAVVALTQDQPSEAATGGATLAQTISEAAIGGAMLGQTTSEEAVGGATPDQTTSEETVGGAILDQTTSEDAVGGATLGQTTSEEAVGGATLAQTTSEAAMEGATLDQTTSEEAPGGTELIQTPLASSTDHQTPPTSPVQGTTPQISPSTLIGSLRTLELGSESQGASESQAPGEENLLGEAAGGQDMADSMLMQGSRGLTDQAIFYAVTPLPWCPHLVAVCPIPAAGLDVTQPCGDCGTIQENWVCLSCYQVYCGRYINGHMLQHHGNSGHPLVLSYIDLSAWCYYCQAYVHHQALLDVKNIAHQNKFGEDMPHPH

[5] = target: T2, Histone deacetylase 8 (Homo sapiens, UniProt Q9BY41); assay: Inhibition of HDAC8 (unknown origin) incubated for 1 hr by fluor de lys substrate based fluorescence method
T2 sequence (Q9BY41 whole entry): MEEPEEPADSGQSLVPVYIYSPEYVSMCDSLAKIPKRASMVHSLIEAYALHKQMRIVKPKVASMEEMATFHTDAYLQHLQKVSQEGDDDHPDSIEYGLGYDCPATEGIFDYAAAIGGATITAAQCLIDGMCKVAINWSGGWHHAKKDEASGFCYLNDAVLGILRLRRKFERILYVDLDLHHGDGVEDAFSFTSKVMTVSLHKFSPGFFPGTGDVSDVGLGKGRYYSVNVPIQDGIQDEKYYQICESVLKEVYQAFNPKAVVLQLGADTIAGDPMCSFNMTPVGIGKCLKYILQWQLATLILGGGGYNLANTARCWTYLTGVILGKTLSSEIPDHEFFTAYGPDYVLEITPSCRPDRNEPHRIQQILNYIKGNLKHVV

[6] = system: HCT-116; assay: Antitumor activity against human HCT116 cells xenografted in Swiss mouse assessed as tumor growth inhibition at 10 mg/kg, ip dosed starting day 1 post tumor implantation and repeated every 7 days for 4 times; assay type: functional, organism-based
[7] = system: Mus musculus; assay: Toxicity in human HCT116 cells xenografted Swiss mouse at 10 mg/kg, ip dosed starting day 1 post tumor implantation and repeated every 7 days for 4 times; assay type: organism-based, HCT-116; details: in vivo, 168 h

Row | IC50 [1] [nM] | IC50 [2] [nM] | IC50 [3] [nM] | IC50 [4] [nM] | IC50 [5] [nM] | SMILES | TGI [6] | Activity [7]
1 | > 10000 | > 10000 | – | – | – | CC(C)[C@H]1NC(=O)C[C@H]2/C=C/CCSSC[C@@H](NC1=O)C(=O)N1CCC(CC1)CC(=O)O2 | – | –
2 | 7000 | 1500 | – | – | – | CC(C)[C@H]1NC(=O)C[C@H]2/C=C/CCSSC[C@@H](NC1=O)C(=O)NC1CCC(CC1)C(=O)O2 | – | –
3 | > 10000 | 2200 | – | – | – | CC(=O)SCC/C=C/[C@@H]1CC(=O)N[C@H](C(C)C)C(=O)N[C@H](Cc2ccc(O)cc2)C(=O)N[C@H](C(C)C)c2cn(nn2)CC(=O)O1 | – | –
4 | > 10000 | > 10000 | – | – | – | CC(C)[C@H]1NC(=O)C[C@H]2/C=C/CCSSC[C@@H](NC1=O)C(=O)N(C)Cc1ccccc1CC(=O)O2 | – | –
5 | 2810 | 780 | – | – | – | CC(C)[C@H]1NC(=O)C[C@H]2/C=C/CCSSC[C@@H](NC1=O)C(=O)NCc1[nH]c3ccccc3c1CC(=O)O2 | – | –
6 | 510 | 180 | – | – | – | CC(C)[C@H]1NC(=O)C[C@H]2/C=C/CCSSC[C@@H](NC1=O)C(=O)NCc1cc(OC(F)(F)F)ccc1CC(=O)O2 | – | –
7 | > 10000 | > 10000 | – | – | – | CC(C)[C@H]1NC(=O)C[C@H]2/C=C/CCSSC[C@@H](NC1=O)C(=O)Nc1ccccc1C(=O)NCC(=O)O2 | – | –
8 | > 10000 | > 10000 | – | – | – | CC(C)[C@H]1NC(=O)C[C@H]2/C=C/CCSSC[C@@H](NC1=O)C(=O)Nc1cccc(c1)CC(=O)O2 | – | –
9 | 3300 | 11000 | – | – | – | CC(C)[C@@H]1NC(=O)CC(=O)O[C@@H]2/C=C/CCSSC[C@@H](NC(=O)[C@@H](C(C)C)NC(=O)C2)C(=O)N1 | – | –
10 | 25 | 15 | – | – | – | C=C(C)[C@H]1NC(=O)[C@H]2CSSCC/C=C/[C@H](CC(=O)N[C@H](C)C(=O)N2)OC(=O)C[C@@H]1O [SPIRUCHOSTATIN A] | – | –
11 | 6000 | 270 | – | – | – | CC[C@H]1NC(=O)[C@@H](C(C)C)NC(=O)C[C@@H](/C=C/CCSC(C)=O)OC(=O)CNC(=O)[C@@H](C(C)C)NC1=O | – | –
12 | 2500 | 400 | – | – | – | CC(C)[C@H]1NC(=O)C[C@H]2/C=C/CCSSC[C@@H](NC1=O)C(=O)NCc1ccccc1CC(=O)O2 | – | –
13 | 10600 | 1500 | 1040 | 9890 | 1620 | CC(=O)SCC/C=C/[C@@H]1CC(=O)N[C@H](C(C)C)C(=O)N[C@H](Cc2cn(C)cn2)C(=O)N[C@H](C(C)C)c2cn(nn2)CC(=O)O1 | – | –
14 | 2000 | 2500 | – | – | – | CC(C)[C@H]1NC(=O)C[C@H]2/C=C/CCSSC[C@@H](NC1=O)C(=O)NCc1cc(Br)ccc1CC(=O)O2 | – | –
15 | 230 | 9 | 1270 | 18300 | 14300 | CCCCCCCC(=O)SCC/C=C/[C@@H]1CC(=O)N[C@H](C(C)C)C(=O)N[C@H](C)C(=O)N[C@H](C(C)C)C(=O)NCC(=O)O1 | – | –
16 | 400 | 110 | – | – | – | CC(C)[C@H]1NC(=O)C[C@H]2/C=C/CCSSC[C@@H](NC1=O)C(=O)N[C@H](C(C)C)c1cn(nn1)CC(=O)O2 | – | –
17 | 600 | 200 | – | – | – | CC(C)[C@H]1NC(=O)C[C@H]2/C=C/CCSSC[C@@H](NC1=O)C(=O)NCc1cc(-c3ccccc3)ccc1CC(=O)O2 | Active | Non-toxic
18 | 3100 | 190 | 1050 | 8670 | 1800 | CC(=O)SCC/C=C/[C@@H]1CC(=O)N[C@H](C(C)C)C(=O)N[C@H](Cc2ccccc2)C(=O)N[C@H](C(C)C)c2cn(nn2)CC(=O)O1 | – | –
19 | 970 | 120 | – | – | – | CC(=O)SCC/C=C/[C@@H]1CC(=O)N[C@H](Cc2ccccc2)C(=O)N[C@H](C)C(=O)N[C@H](C(C)C)c2cn(nn2)CC(=O)O1 | – | –
20 | 3500 | 470 | – | – | – | CC(C)[C@H]1NC(=O)C[C@H]2/C=C/CCSSC[C@@H](NC1=O)C(=O)NCc1ccc(Cl)cc1CC(=O)O2 | – | –
21 | 700 | 30 | 820 | 8900 | 8010 | CCCCCCCCSSCC/C=C/[C@@H]1CC(=O)N[C@H](C(C)C)C(=O)N[C@H](C)C(=O)N[C@H](C(C)C)C(=O)NCC(=O)O1 | – | –
22 | 2750 | 380 | – | – | – | CC(C)[C@H]1NC(=O)C[C@H]2/C=C/CCSSC[C@@H](NC1=O)C(=O)NCc1ccc(Br)cc1CC(=O)O2 | – | –
